Literature values in patent US20150157647A1, “METHODS AND CO[…] TO ACUTE RESPIRATORY DISTRESS SYNDROME” (priority 2013, published 2015).

Assays:
[1] = system: endothelial monolayers obtained from rat lung; details: interferes with function of adherence proteins
[2] = system: rodent brain contusion model; details: given 1 hour after the insult
[3] = system: animal models of preeclampsia

C[C@]12CC[C@H](O)C[C@@]1(O)CC[C@@H]1[C@@H]2CC[C@]2(C)[C@@H](c3ccc(=O)oc3)C[C@H]3O[C@]132 [MBG, marinobufagenin]
In vitro vascular action: vasoconstrictor
Effect on vascular permeability [1]: causes vascular “leak”

C[C@]12CC[C@H](O)C[C@H]1CC[C@@H]1[C@@H]2CC[C@]2(C)[C@@H](c3ccc(=O)oc3)C[C@H]3O[C@]132 [RBG, epoxy-3β-hydroxy-5β-bufa-20,22-dienolide]
Effect on tissue injury [2]: amelioration of tissue injury
Effect on preeclampsia [3]: prevents preeclampsia
